Literature values in US20030104065A1, “Method of preparing solid dispersions” (priority 2002, published 2003).

Conditions: local anesthetic effect, versus lidocaine

For `CCCN1CCCC[C@H]1C(=O)Nc1c(C)cccc1C` [ropivacaine], the “therapeutic potency relative to lidocaine” value is listed as “about 50 times”.
